Results published in patent US10519099B2, “Cystobactamides” (priority 2014, dated 2019).
Converted amounts (≈) assume the structure as drawn.

System: E. coli JW0401-1 (WT)
Assay: MIC microdilution, E. coli JW0401-1 (WT)
Assay type: cell-based, Escherichia coli
Details: Escherichia coli; Gram-negative set
Method: Indicator strains used in susceptibility assays were either part of our strain collection or purchased from the German Collection of Microorgansims and Cell Cultures (DSMZ) or from the American Type Culture Collection (ATCC). E. coli strain WT and corresponding E. coli mutants were kindly provided by Prof. Dr. P. Heisig, Pharmaceutical Biology and Microbiology, University of Hamburg. E. coli strains JW0401-1 (WT) and Δtsx were obtained from the CGSC collection.
MIC values were determined in standardized microdilution assays. Overnight cultures were diluted in the appropriate growth medium to achieve an inoculum of 10^4-10^6 cfu/mL. Yeasts were grown in Myc medium (1% phytone peptone, 1% glucose, 50 mM HEPES, pH 7.0), S. pneumonia and Enterococcus spp. in tryptic soy broth (TSB: 1.7% peptone casein, 0.3% peptone soymeal, 0.25% glucose, 0.5% NaCl, 0.25% K2HPO4; pH 7.3); M. smegmatis in Middlebrook 7H9 medium supplemented with 10% Middlebrook ADC enrichment and 2 ml/I glycerol). All other listed bacteria were grown in Müller-Hinton broth (0.2% beef infusion solids, 1.75% casein hydrolysate, 0.15% starch, pH 7.4). […] Growth inhibition was assessed by visual inspection and the MIC was defined as the lowest concentration of compound that inhibited visible growth.

`COC(C(N)=O)C(NC(=O)c1ccc(NC(=O)c2ccc([N+](=O)[O-])cc2)cc1)C(=O)Nc1ccc(C(=O)Nc2ccc(C(=O)Nc3ccc(C(=O)O)cc3OC(C)C)c(O)c2OC(C)C)cc1` (stereo not shown) [Cys 919-2] showed an MIC of 1 mg/L (≈ 1.09 µM).
